Laboratory results as given in patent US20240358692A1, “TREATMENT OF SCLERODERMA” (Aisa Pharma, Inc., priority 2023, published 2024).

Columns and labels:
participants with SSc-RP [1] = experiment: SHAQ - Visual Analog Scale - Intestinal Problems; type: in vivo, human; design: Visual Analog Scale-Intestinal Problems, In Clinic Visit (Day 12), Mean / Visual Analog Scale-Intestinal Problems, In Clinic Visit (Day 12), Median / Visual Analog Scale-Intestinal Problems, Change from Baseline, Mean / Visual Analog Scale-Intestinal Problems, Change from Baseline, Median / SHAQ Visual Analogue Scale - Intestinal Problems, In-Clinic Visit (Day 12), Median: scale not given here
Text: The standard, validated, patient reported outcome measures tool for SSc patients, the Scleroderma Health Assessment Questionnaire (SHAQ), will be used to assess the participant qualify of life. Details are attached in the Appendix. The participant quality of life will be scored, and a disability index calculated for each questionnaire completed by the patient at Screening and each in-clinic visit. The absolute change in participant quality of life from baseline to the end of each dosing period will be calculated similar to frequency data as before.
The standard, validated, patient reported outcome measures tool for SSc patients, the SHAQ, was collected at the time points specified in the study schedules (FIG. 2 and FIGS. 4A and 4B) to assess the participant's quality of life. The SHAQ included a Raynaud's VAS that will also be reported separately.

participants with SSc-RP [2] = experiment: Summary of data: dose response / overall response (Table S); type: in vivo, human; conditions: 20 mg dose group
[3] = cited from earlier work
[4] = Any Cilnidipine (N = 17), Day 12, PP Population, Part A
[5] = Cilnidipine 10 mg, SSc patients, PP, Part A
[6] = Cilnidipine 20 mg, SSc patients, PP, Part A
[7] = Modified ITT Population-Part A, Day 12, dose cilnidipine 20 mg, tadalafil 5 mg, alone or combined as labelled
[8] = Modified ITT Population-Part A, dose cilnidipine 10 mg, tadalafil 5 mg, alone or combined as labelled
[9] = Pooled Cilnidipine (N = 8), Day 12, PP Population, Part A
[10] = pooled Cilnidipine 10 mg and Cilnidipine 10 mg + Tadalafil 5 mg
[11] = pooled Cilnidipine 20 mg and Cilnidipine 20 mg + Tadalafil 5 mg
[12] = pooled cilnidipine 10 mg and 20 mg arms (combination: + tadalafil 5 mg)

COCCOC(=O)C1=C(C)NC(C)=C(C(=O)OC/C=C/c2ccccc2)C1c1cccc([N+](=O)[O-])c1 (stereo not drawn) [Cilnidipine]
SHAQ Visual Analogue Scale - Intestinal Problems, Change from Baseline, Mean (SD) (participants with SSc-RP [1]; [4]): −0.556 (1.7427)
SHAQ Visual Analogue Scale - Intestinal Problems, Change from Baseline, Median (participants with SSc-RP [1]; [4]): −0.100
SHAQ Visual Analogue Scale - Intestinal Problems, In-Clinic Visit (Day 12), Mean (SD) (participants with SSc-RP [1]; [4]): 1.121 (1.4119)
SHAQ Visual Analogue Scale - Intestinal Problems, In-Clinic Visit (Day 12), Median (participants with SSc-RP [1]; [4]): 0.600
SHAQ Visual Analogue Scale - Intestinal Problems, Percent Change from Baseline, Mean (SD) (participants with SSc-RP [1]; [4]): −18.65 (93.767) %
SHAQ Visual Analogue Scale - Intestinal Problems, Percent Change from Baseline, Median (participants with SSc-RP [1]; [4]): −54.13%
SHAQ VAS Intestinal Problems, Change from Baseline, Max (participants with SSc-RP [1]; [5]): 0.00
SHAQ VAS Intestinal Problems, Change from Baseline, Median (participants with SSc-RP [1]; [5]): −1.550
SHAQ VAS Intestinal Problems, Change from Baseline, Min (participants with SSc-RP [1]; [5]): −4.40,
SHAQ VAS Intestinal Problems, Change from Baseline, Q1 (participants with SSc-RP [1]; [5]): −3.700,
SHAQ VAS Intestinal Problems, Change from Baseline, Q3 (participants with SSc-RP [1]; [5]): −0.050
SHAQ VAS Intestinal Problems, Day 12, Max (participants with SSc-RP [1]; [5]): 3.80
SHAQ VAS Intestinal Problems, Day 12, Mean (participants with SSc-RP [1]; [5]): 1.100
SHAQ VAS Intestinal Problems, Day 12, Median (participants with SSc-RP [1]; [5]): 0.300
SHAQ VAS Intestinal Problems, Day 12, Min (participants with SSc-RP [1]; [5]): 0.00,
SHAQ VAS Intestinal Problems, Day 12, Q1 (participants with SSc-RP [1]; [5]): 0.000,
SHAQ VAS Intestinal Problems, Day 12, Q3 (participants with SSc-RP [1]; [5]): 2.200
SHAQ VAS Intestinal Problems, Percent Change from Baseline, Max (participants with SSc-RP [1]; [5]): −44.1
SHAQ VAS Intestinal Problems, Percent Change from Baseline, Median (participants with SSc-RP [1]; [5]): −88.00
SHAQ VAS Intestinal Problems, Percent Change from Baseline, Min (participants with SSc-RP [1]; [5]): −100.0,
SHAQ VAS Intestinal Problems, Percent Change from Baseline, Q1 (participants with SSc-RP [1]; [5]): −100.00,
SHAQ VAS Intestinal Problems, Percent Change from Baseline, Q3 (participants with SSc-RP [1]; [5]): −44.12
SHAQ VAS Intestinal Problems, Change from Baseline, Max (participants with SSc-RP [1]; [6]): 0.60
SHAQ VAS Intestinal Problems, Change from Baseline, Mean (participants with SSc-RP [1]; [6]): 0.150
SHAQ VAS Intestinal Problems, Change from Baseline, Median (participants with SSc-RP [1]; [6]): 0.150
SHAQ VAS Intestinal Problems, Change from Baseline, Min (participants with SSc-RP [1]; [6]): −0.30,
SHAQ VAS Intestinal Problems, Change from Baseline, Q1 (participants with SSc-RP [1]; [6]): −0.150,
SHAQ VAS Intestinal Problems, Change from Baseline, Q3 (participants with SSc-RP [1]; [6]): 0.450
SHAQ VAS Intestinal Problems, Day 12, Max (participants with SSc-RP [1]; [6]): 2.10
SHAQ VAS Intestinal Problems, Day 12, Mean (participants with SSc-RP [1]; [6]): 0.850
SHAQ VAS Intestinal Problems, Day 12, Median (participants with SSc-RP [1]; [6]): 0.650
SHAQ VAS Intestinal Problems, Day 12, Min (participants with SSc-RP [1]; [6]): 0.00,
SHAQ VAS Intestinal Problems, Day 12, Q1 (participants with SSc-RP [1]; [6]): 0.000,
SHAQ VAS Intestinal Problems, Day 12, Q3 (participants with SSc-RP [1]; [6]): 1.700
SHAQ VAS Intestinal Problems, Percent Change from Baseline, Max (participants with SSc-RP [1]; [6]): 40.0
SHAQ VAS Intestinal Problems, Percent Change from Baseline, Mean (participants with SSc-RP [1]; [6]): −10.00
SHAQ VAS Intestinal Problems, Percent Change from Baseline, Min (participants with SSc-RP [1]; [6]): −100.0,
SHAQ VAS Intestinal Problems, Percent Change from Baseline, Q1 (participants with SSc-RP [1]; [6]): −100.00,
SHAQ VAS Intestinal Problems, Percent Change from Baseline, Q3 (participants with SSc-RP [1]; [6]): 40.00
SHAQ Intestinal Difficulty, mean % change (participants with SSc-RP [1]; Cilnidipine, pooled, n = 7 (in column Cilnidipine 20 mg), minus = improvement, Table A*): −45% (pooled,
Visual Analog Scale-Intestinal Problems, Percent Change from Baseline, Median (participants with SSc-RP [1]; Modified ITT Population-Part A, Day 12, dose cilnidipine 10 mg, tadalafil 5 mg, alone or combined as labelled): −88.00%
Visual Analog Scale-Intestinal Problems, Change from Baseline, Mean (participants with SSc-RP [1]; [7]): 0.300
Visual Analog Scale-Intestinal Problems, Change from Baseline, Median (participants with SSc-RP [1]; [7]): 0.300
Visual Analog Scale-Intestinal Problems, Percent Change from Baseline, Mean (participants with SSc-RP [1]; [7]): 35.00%
Visual Analog Scale-Intestinal Problems, Percent Change from Baseline, Median (participants with SSc-RP [1]; [7]): 35.00%
Visual Analog Scale-Intestinal Problems, In Clinic Visit (Day 12), Mean (participants with SSc-RP [1]; [8]): 1.100
Visual Analog Scale-Intestinal Problems, In Clinic Visit (Day 12), Median (participants with SSc-RP [1]; [8]): 0.300
Visual Analog Scale-Intestinal Problems, In Clinic Visit (Day 12), Median (participants with SSc-RP [1]; Modified ITT Population-Part A, dose cilnidipine 20 mg, tadalafil 5 mg, alone or combined as labelled): 1.300
SHAQ Visual Analogue Scale - Intestinal Problems, In-Clinic Visit (Day 12), Median (participants with SSc-RP [1]; Pooled Cilnidipine 10 mg and Cilnidipine 10 mg + Tadalafil 5 mg (N = 9), Day 12, PP Population, Part A): 0.700
SHAQ Visual Analogue Scale - Intestinal Problems, In-Clinic Visit (Day 12), Median (participants with SSc-RP [1]; Pooled Cilnidipine 20 mg and Cilnidipine 20 mg + Tadalafil 5 mg (N = 8), Day 12, PP Population, Part A): 0.100
SHAQ Visual Analogue Scale - Intestinal Problems, Change from Baseline, Mean (SD) (participants with SSc-RP [1]; [9]): −0.863 (1.8110)
SHAQ Visual Analogue Scale - Intestinal Problems, In-Clinic Visit (Day 12), Mean (SD) (participants with SSc-RP [1]; [9]): 0.975 (1.3781)
SHAQ Visual Analogue Scale - Intestinal Problems, Percent Change from Baseline, Mean (SD) (participants with SSc-RP [1]; [9]): −43.69 (64.404) %
% Δ from baseline, Intestinal Problems mean (participants with SSc-RP [1]; Pooled cilnidipine (n=5)): −32.4%
VAS Intestinal Problems Change from Baseline Max (participants with SSc-RP [1]; [10]): 1.00
VAS Intestinal Problems Change from Baseline Mean (participants with SSc-RP [1]; [10]): −1.228
VAS Intestinal Problems Change from Baseline Median (participants with SSc-RP [1]; [10]): −0.250
VAS Intestinal Problems Change from Baseline Min (participants with SSc-RP [1]; [10]): −4.40,
VAS Intestinal Problems Change from Baseline Q1 (participants with SSc-RP [1]; [10]): −3.000,
VAS Intestinal Problems Change from Baseline Q3 (participants with SSc-RP [1]; [10]): 0.000
VAS Intestinal Problems Day 12 Max (participants with SSc-RP [1]; [10]): 3.80
VAS Intestinal Problems Day 12 Median (participants with SSc-RP [1]; [10]): 0.700
VAS Intestinal Problems Day 12 Min (participants with SSc-RP [1]; [10]): 0.00,
VAS Intestinal Problems Day 12 Q1 (participants with SSc-RP [1]; [10]): 0.000,
VAS Intestinal Problems Day 12 Q3 (participants with SSc-RP [1]; [10]): 1.900
VAS Intestinal Problems Percent Change from Baseline Max (participants with SSc-RP [1]; [10]): 142.9%
VAS Intestinal Problems Percent Change from Baseline Mean (participants with SSc-RP [1]; [10]): −27.93%
VAS Intestinal Problems Percent Change from Baseline Min (participants with SSc-RP [1]; [10]): −100.0, %
VAS Intestinal Problems Percent Change from Baseline Q1 (participants with SSc-RP [1]; [10]): −94.00, %
VAS Intestinal Problems Percent Change from Baseline Q3 (participants with SSc-RP [1]; [10]): 15.00%
VAS Intestinal Problems Change from Baseline Max (participants with SSc-RP [1]; [11]): 2.90
VAS Intestinal Problems Change from Baseline Median (participants with SSc-RP [1]; [11]): 0.000
VAS Intestinal Problems Change from Baseline Min (participants with SSc-RP [1]; [11]): −1.60,
VAS Intestinal Problems Change from Baseline Q1 (participants with SSc-RP [1]; [11]): −0.300,
VAS Intestinal Problems Change from Baseline Q3 (participants with SSc-RP [1]; [11]): 0.600
VAS Intestinal Problems Day 12 Max (participants with SSc-RP [1]; [11]): 4.50
VAS Intestinal Problems Day 12 Median (participants with SSc-RP [1]; [11]): 0.200
VAS Intestinal Problems Day 12 Min (participants with SSc-RP [1]; [11]): 0.00,
VAS Intestinal Problems Day 12 Q1 (participants with SSc-RP [1]; [11]): 0.000,
VAS Intestinal Problems Day 12 Q3 (participants with SSc-RP [1]; [11]): 2.100
VAS Intestinal Problems Percent Change from Baseline Max (participants with SSc-RP [1]; [11]): 181.3%
VAS Intestinal Problems Percent Change from Baseline Median (participants with SSc-RP [1]; [11]): 30.00%
VAS Intestinal Problems Percent Change from Baseline Min (participants with SSc-RP [1]; [11]): −100.0, %
VAS Intestinal Problems Percent Change from Baseline Q1 (participants with SSc-RP [1]; [11]): −88.89, %
VAS Intestinal Problems Percent Change from Baseline Q3 (participants with SSc-RP [1]; [11]): 40.00%
VAS Intestinal Problems Change from Baseline Max (participants with SSc-RP [1]; [12]): 0.60
VAS Intestinal Problems Change from Baseline Median (participants with SSc-RP [1]; [12]): 0.000
VAS Intestinal Problems Change from Baseline Min (participants with SSc-RP [1]; [12]): −4.40,
VAS Intestinal Problems Change from Baseline Q1 (participants with SSc-RP [1]; [12]): −3.000,
VAS Intestinal Problems Change from Baseline Q3 (participants with SSc-RP [1]; [12]): 0.300
VAS Intestinal Problems Day 12 Max (participants with SSc-RP [1]; [12]): 3.80
VAS Intestinal Problems Day 12 Median (participants with SSc-RP [1]; [12]): 0.600
VAS Intestinal Problems Day 12 Min (participants with SSc-RP [1]; [12]): 0.00,
VAS Intestinal Problems Day 12 Q1 (participants with SSc-RP [1]; [12]): 0.000,
VAS Intestinal Problems Day 12 Q3 (participants with SSc-RP [1]; [12]): 2.100
VAS Intestinal Problems Percent Change from Baseline Max (participants with SSc-RP [1]; [12]): 40.0%
VAS Intestinal Problems Percent Change from Baseline Min (participants with SSc-RP [1]; [12]): −100.0, %
VAS Intestinal Problems Percent Change from Baseline Q1 (participants with SSc-RP [1]; [12]): −88.00, %
VAS Intestinal Problems Percent Change from Baseline Q3 (participants with SSc-RP [1]; [12]): 30.00%
Efficacy seen: overall response (participants with SSc-RP [2]): shows best overall
CL/F ([3]; 10 mg Cilnidipine, Healthy Volunteers, single oral dose, mean): 304.7 L/h
time to achieve maximal plasma concentrations (Tmax) ([3]; oral dosing): ≤ 2 h
